Assay [1] relates to wild type MARV (Lake Victoria, 2005 Angola). Nature of the assay: organism not typed. It is filed as cell-based, Marburg virus (MARV). The settings on record: Vero, read-out: MARV EC50, Vero cells.
For assay [2], the system named is Wild type Ebola virus (1976 Mayinga variant). It is filed as cell-based, Ebola virus (EBOV).
For assay [3], the system named is HIV/EBOV-GP pseudotype virus. Kind of assay: organism not typed. Type of assay: cell-based, Ebola virus (EBOV). The settings on record: for EC50: A549, read-out: EC50, Ebola pseudovirus (in nM).
The target of assay [4] is CYP2C9 (Homo sapiens, UniProt P11712).
Assay [5] deals with CYP3A4 (Homo sapiens, UniProt P08684).

These results are taken from paper PMC7671190 (Journal of medicinal chemistry, 2020).

Molecules are shown by their SMILES. pEC50: −log10 of the molar value. Like-named read-outs stand apart in the source and are kept apart here.

Chain of CYP2C9 (P11712 whole entry): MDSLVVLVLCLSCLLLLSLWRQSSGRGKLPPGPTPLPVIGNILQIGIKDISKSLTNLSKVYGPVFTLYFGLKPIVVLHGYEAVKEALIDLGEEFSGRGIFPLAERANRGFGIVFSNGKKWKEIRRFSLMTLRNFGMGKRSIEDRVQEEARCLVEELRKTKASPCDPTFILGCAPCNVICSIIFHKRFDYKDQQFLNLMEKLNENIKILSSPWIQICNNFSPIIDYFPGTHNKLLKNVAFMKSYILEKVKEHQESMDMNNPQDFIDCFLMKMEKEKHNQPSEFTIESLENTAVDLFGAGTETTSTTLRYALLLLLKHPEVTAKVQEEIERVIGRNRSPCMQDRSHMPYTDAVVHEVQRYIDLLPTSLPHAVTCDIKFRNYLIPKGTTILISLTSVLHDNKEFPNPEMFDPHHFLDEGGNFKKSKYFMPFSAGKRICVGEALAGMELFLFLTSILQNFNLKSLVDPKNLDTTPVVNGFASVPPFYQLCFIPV
Chain of CYP3A4 (P08684 whole entry): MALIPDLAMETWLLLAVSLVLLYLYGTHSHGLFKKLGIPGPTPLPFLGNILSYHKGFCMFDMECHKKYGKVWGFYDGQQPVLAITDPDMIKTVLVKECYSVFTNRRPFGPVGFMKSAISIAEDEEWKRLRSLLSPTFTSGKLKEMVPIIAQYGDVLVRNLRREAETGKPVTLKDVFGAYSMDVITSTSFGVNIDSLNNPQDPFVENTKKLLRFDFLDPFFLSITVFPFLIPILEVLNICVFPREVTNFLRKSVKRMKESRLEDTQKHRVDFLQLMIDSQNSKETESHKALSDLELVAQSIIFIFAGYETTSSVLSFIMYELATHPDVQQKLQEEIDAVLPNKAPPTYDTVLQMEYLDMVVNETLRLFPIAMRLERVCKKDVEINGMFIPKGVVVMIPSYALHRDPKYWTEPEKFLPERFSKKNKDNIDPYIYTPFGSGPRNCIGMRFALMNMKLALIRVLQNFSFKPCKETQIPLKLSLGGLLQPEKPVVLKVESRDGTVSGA

`COC(=O)c1ccc(NC(=O)c2ccc(CN3CCCCC3)cc2)cc1` [Compound 5, Methyl 4-(4-(piperidin-1-ylmethyl)benzamido)benzoate]: in assay [1], the pEC50 was more than 5.00. The “EBOV (HeLa) EC50” value in assay [2] is “inactive”.
With `COC(=O)c1ccc(NC(=O)c2ccc(CN3CCN(C)CC3)cc2)cc1` [Compound 7, Methyl 4-(4-((4-methylpiperazin-1-yl)methyl)benzamido)benzoate], the inhibition at 12.5 µM in assay [3] (A549, read-out: Ebola pseudovirus A549 cells % inhibition) was 29%.
For `O=C(NCCC1CCCCC1)c1ccc(CN2CCCCC2)cc1` [Compound 28, N-(2-Cyclohexylethyl)-4-(piperidin-1-ylmethyl)benzamide], the “Drop in potency on replacing the aniline aromatic ring with a two-carbon linker” value in assay [3] turned out to be 2.3 fold.
`O=C(Nc1ccc(C23CC4CC(CC(C4)C2)C3)cc1)c1ccc(CN2CCCCC2)cc1` [Compound 32, N-(4-((1R,3R,5S)-adamantan-1-yl)phenyl)-4-(piperidin-1-ylmethyl)benzamide]: the “CYP450 inhibition CYP2C9 IC50” value in assay [4] is recorded as “did not inhibit”. Besides, the EC50 in assay [3] was less than 100 nM. In addition, in assay [5], the “CYP450 inhibition CYP3A4 IC50” value is “did not inhibit”.
Regarding `O=C(Nc1ccc(C23CC4CC(CC(C4)C2)C3)cc1)c1ccc(CN2CCOCC2)cc1` [Compound 33, N-(4-((1R,3R,5S)-Adamantan-1-yl)phenyl)-4-(morpholinomethyl)benzamide], in assay [3], the EC50 is less than 100 nM.
`O=C(Nc1ccc(N2CCC(F)(F)CC2)cc1)c1ccc(CN2CCCCC2)cc1` [Compound 34, N-(4-(4,4-Difluoropiperidin-1-yl)phenyl)-4-(piperidin-1-ylmethyl)benzamide]: in assay [3] (A549, read-out: Ebola pseudovirus A549 cells EC50), the pEC50 is more than 6.00.
